These results are taken from patent US20070190046A1, “Anti-abeta antibody” (Eli Lilly and Company, priority 2004, published 2007).

For this assay, the system named is Aβ peptide naturally expressed by HEK 293 cells. Briefly: Acid urea gel / western blot analysis of Aβ peptide in purified antibody from HEK 293 cell culture with γ-secretase inhibitor. Type of assay: cell-based, human. The following applies: for FL (Full length hAβ40) / T2 (N-terminal truncated hAβ40, #2): no-inhibitor control 70; for T1 (N-terminal truncated hAβ40, #1): no-inhibitor control 38; for Total hAβ40: no-inhibitor control 178. The protocol: A γ-secretase inhibitor, [drawing 1] (WO 98/28268), is added to the HEK 293 cell culture in which an anti-Aβ antibody is being expressed to reduce the amount of Aβ peptide naturally expressed by cells. Cell culture samples for this example include a control culture with no inhibitor added, a culture in which 1 nM inhibitor is added at time=0 and every 24 hours thereafter for 5 days (for a 5 day transfection), and a culture in which 1 nM inhibitor is added at time=0. These samples are purified using a Protein A column as well as size exclusion chromatography. The samples are analyzed for Aβ peptide content by acid-urea gel separation and subsequent western blot analysis as detailed below.
The following protocol describes a technique for formic acid denaturation of samples and subsequent electrophoresis through an acid-urea polyacrylamide matrix:
• 1) Clean and assemble acrylamide gel plates for casting. For example, Hoeffer plates into a casting stand (16 cm×14 cm plates with 1.5 mm spacers). Clean plates thoroughly with detergent, rinse in distilled H2O(dH2O), rinse with acetone, and finally rinse with 100% EtOH. • 2) Mark plates at 10 cm (22% separating gel) and 11.75 cm (10% step gel). Making the Gel and Gel Concentrations • 1) Acrylamide (40% solution, such as pre-made Bio-Rad/cat#161-0148)
• Add urea, acrylamide, glacial acetic acid (GAA), and dH2O into 50 mL conical tubes. Vortex briefly and incubate in a 55° C. water bath. Vortex every few minutes until the urea is completely in solution. Degas 22% and 10% solutions and place solutions on ice, leaving the 4% stacker in the water bath. Pouring the Gel (at Room Temperature) • 1) Add N,N,N′,N′-tetramethylethylenediamine (TEMED) to the 22% solution and gently invert several times to mix. Next add the 10% APS (ammonium persulfate) and invert several times. Using a 25 mL pipette, slowly pour solution between the plates until it reaches the 10 cm mark. • 2) Carefully add a 750 μL overlay of 5% GAA. Use a P1000 pipette to very slowly let the 5% GAA run down one side of the glass plates onto the 22% resolving gel. • 3) Allow to polymerize at room temperature for at least 1 hour. • 4) Add the TEMED and 10% APS to the 10%-acrylamide solution in the same manner as for the 22%. Remove the overlay and add the solution until reaching the second mark at 11.75 cm. Again, carefully pour a 750 μL overlay of 5% GAA as above. Allow the gel to polymerize for 30 minutes. • 5) Prior to adding the 4% stacker solution, place the gel stand in a 37° C. incubator for 15 minutes to warm gels. This aids in the wells polymerizing correctly. Degas the 4% stacker solution and keep at 55° C. Remove the overlay. Add the TEMED, invert several times, and then add the 10% APS. Quickly pour this solution and insert a clean-dry 12-well comb (or a 15-well comb). After pouring the stacker, place the stand back in the incubator for 15 minutes then remove. Allow to polymerize on the bench top. The stacker will take at least 1.5 hours to polymerize completely. • *Note: During the polymerization steps, air pockets may appear in the resolving gel. These pockets form due to the change in temperature of the gel during and after polymerization. […] Sample Preparation • Analysis upwards of 3 mg of protein in a single lane will achieve reasonable band results. Conditions for analyzing protein are as follows.
Sample: • 30 μL of […] protein (maximum concentration of protein) • 80 μL formic acid (98%) (ICN cat#15162-90) • 20 μL Acid Loading Buffer (80% formic acid, 60% sucrose and 0.02% methyl green; • Make buffer by dissolving 6 g sucrose in ˜8 mL of ˜99% formic acid. Heat and agitate the mixture. After the sucrose has dissolved, the volume of the solution is adjusted to 10 mL with ˜99% formic acid. Add 2 μL of 1% methyl green solution.) • 1 μl β-Mercaptoethanol • *Note: Adjust volumes as needed. […]
(In western blotting, separated proteins are transferred to a membrane and probed.)

Setting [1] is: HEK 293 culture, 1 nM inhibitor added at time=0 only.
Where [2] appears, read: HEK 293 culture, 1 nM inhibitor at time=0 and every 24 hours for 5 days.

For the compound `C[C@H](NC(=O)[C@@H](O)c1cc(F)cc(F)c1)C(=O)N[C@@H]1C(=O)N(C)c2ccccc2-c2ccccc21` [Inhibitor], where the note is “HEK 293 culture expressing anti-Aβ antibody, 1 nM inhibitor added at time=0 and every 24 hours for 5 days”, the “FL (Full length hAβ40)” value amounted to 4 pg/μg IgG. Further, under setting [1], the “T1 (N-terminal truncated hAβ40, #1)” value was determined as 27 pg/μg IgG; the “FL (Full length hAβ40)” value is recorded as 56 pg/μg IgG; the “T2 (N-terminal truncated hAβ40, #2)” value stood at 52 pg/μg IgG; the “Total hAβ40” value amounted to 135 pg/μg IgG. Under setting [2], the “T1 (N-terminal truncated hAβ40, #1)” value was 0 pg/μg IgG; the “T2 (N-terminal truncated hAβ40, #2)” value is 3 pg/μg IgG; the “Total hAβ40” value was 7 pg/μg IgG.
